Patent US10457678B2, “Substituted pyrrolo[2,3-b]pyridines as inhibitors of cellular necroptosis” (Institut National de la Sante et de la Recherche Medicale …, priority 2015, dated 2019)
Entries after “also recorded” stand apart in the source; their conditions may differ. Like-named read-outs stand apart in the source and are kept apart here.

Experiments:
[1] = system: Jurkat FADD-deficient I 2.1 cell line; experiment: Cell-based screening: necroptosis induced by TNF-α in Jurkat FADD-deficient cells, MTS viability assay; set-up: species or system human; settings: for EC50: Homo sapiens, Jurkat FADD-deficient cells, TNF-α 10 ng/ml, 24 hours, MTS viability assay; for inhibition of necroptosis induced by TNF-α: human T lymphocyte, Jurkat FADD deficient cell line
Source text: (§1) TNF-α can induce necroptosis in Jurkat cells (human T lymphocytes) when FADD was deleted. This model was used to screen various libraries of chemical compounds for characterization of new inhibitors of cellular necroptosis. Details on this cell-based assay can be found in Miao and Degterev (Methods Mol. Biol. 2009, 559, 79-93). The Jurkat FADD-deficient I 2.1 cell line used was purchased from ATCC and was maintained in RPMI 1640 medium (Gibco) containing Glutamax and 15% fetal calf serum (Life Technology). Necroptosis was induced by addition of 10 ng/ml of human recombinant TNF-α (Life Technology). Necrostatin-1 (Nec-1, Enzo Life Sciences) was used as model necroptosis inhibitor. Cells were maintained in 75 cm^2 flask and passed every 2 or 3 days. Chemical collections analysed were formatted in 96-well plates with 80 molecules per plates at 10 mM in 100% DMSO. For each collection plate, 2 cell plates were seeded (one necroptosis-induced with TNF-α and the other without TNF-α). Cells were seeded at 20000 cells/well, in 40 μl of medium, in a 96-well clear, flat bottom plate (CytoOne, Starlab) before treatment. Then, 40 μl of medium with or without TNF-α at 25 ng/ml were added to all wells in the corresponding plate. Immediately after TNF-α addition, 20 μl of diluted compound at 50 μM were added to the plates. Final concentration of each chemical compound was 10 μM at 0.1% DMSO. Four positives (Nec-1 at 10 μM final) and four negative (DMSO) controls were used in each plate to validate the assay. Cells were incubated at 37° C., 5% CO2 for 24 hours before performing MTS viability assay, described hereafter. Compounds were diluted before to treat cells. Liquid handling was performed using the Nimbus Microlab liquid handler (Hamilton Robotics) under microbiological safety workbench. The 10 mM compounds were diluted at 50 μM directly in cell medium.

Jurkat Fadd−/− = experiment: Necroptosis induced by TNF in Jurkat Fadd−/− cells (Table 1); assay type: cell-based; settings: Homo sapiens
Source text: as §1
(§2) Besides, the EC50 of compound 7, compound 10 and necrostatin-1 (Nec-1) were determined in mouse or human cellular models of necroptosis induced by FasL+zVAD-fmk (a pan-caspase inhibitor), TRAIL+zVAD-fmk+Bp (Birinapant, a Smac mimetics) or TNF, and by using two cytotoxic assays (MTS Cell Proliferation assay or intracellular ATP level).

L929sAhFas = experiment: Necroptosis induced by FasL + zVAD-fmk in L929sAhFas cells; assay type: cell-based; settings: Mus musculus
Protocol: as §2

HT29 = experiment: Necroptosis induced by TRAIL + zVAD-fmk + Bp (Birinapant) in HT29 cells; assay type: cell-based, human; settings: for EC50: Homo sapiens, HT-29, HT29, TRAIL + Zvad + Bp; for anti-necroptotic effect by inducer (in words, summary of Table 1): TNF-, TRAIL- or FasL-induced necroptosis in mouse or human cellular models
Protocol: as §2

[2] = biological target: T1, Human RIPK1 full length GST-tagged (Homo sapiens, UniProt Q13546); experiment: RIPK1 autophosphorylation assay; assay type: biochemical; settings: [γ-32P] ATP, radiographic film, FIG. 5
T1 construct: Human RIPK1 full length GST-tagged was baculovirally expressed in Sf9 cells; GST; made in house; host or cells: Sf9 insect cells (baculovirus, Bac-to-Bac expression system, Invitrogen)
T1 sequence (Q13546 1-671): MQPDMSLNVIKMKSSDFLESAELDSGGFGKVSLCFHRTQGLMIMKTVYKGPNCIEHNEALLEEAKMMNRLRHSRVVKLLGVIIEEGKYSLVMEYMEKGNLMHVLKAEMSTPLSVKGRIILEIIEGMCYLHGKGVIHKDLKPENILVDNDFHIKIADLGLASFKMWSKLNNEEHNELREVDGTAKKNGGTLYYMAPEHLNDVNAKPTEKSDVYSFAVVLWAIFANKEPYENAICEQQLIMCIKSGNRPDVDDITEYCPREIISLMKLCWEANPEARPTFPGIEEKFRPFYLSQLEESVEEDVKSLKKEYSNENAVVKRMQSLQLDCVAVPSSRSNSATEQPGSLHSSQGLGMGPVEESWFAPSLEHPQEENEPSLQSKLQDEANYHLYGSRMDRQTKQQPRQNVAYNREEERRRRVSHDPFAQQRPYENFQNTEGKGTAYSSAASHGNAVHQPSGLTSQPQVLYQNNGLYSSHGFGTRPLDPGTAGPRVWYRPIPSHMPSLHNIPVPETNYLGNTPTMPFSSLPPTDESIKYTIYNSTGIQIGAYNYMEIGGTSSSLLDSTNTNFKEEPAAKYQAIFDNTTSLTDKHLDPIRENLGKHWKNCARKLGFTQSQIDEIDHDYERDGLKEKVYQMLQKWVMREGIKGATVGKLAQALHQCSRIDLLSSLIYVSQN
Protocol: RIPK1 Autophosphorylation Assay: Human RIPK1 full length GST-tagged was baculovirally expressed in Sf9 cells according to manufacturer's instructions (Bac-to-Bac expression system, Invitrogen) and purified using gluthation-sepharose beads (GE Healthcare). The elution was made in 50 mM Tris-HCl, pH 8.0 buffer supplemented with 30 mM reduced gluthatione (Sigma). The protocol used to detect the enzymatic activity is adapted from Miao and Degterev (Methods Mol. Biol. 2009, 559, 79-93). Kinase reaction was initiated mixing 5 μl of eluted RIPK1, 5 μl of 3× kinase reaction buffer (5 mM MOPS pH 7.2, 2.5 mM β-glycerophosphate, 4 mM MgCl2, 2.5 mM MnCl2, 1 mM EGTA, 0.4 mM EDTA, 50 μg/ml BSA, 0.05 mM DTT), 2 μl H2O and 3 μl of the tested molecule. The mixture was kept on ice for 10 minutes. During the incubation, the ATP solution was prepared by mixing 5 μl of 3× kinase reaction buffer, 4 μl H2O, 6 μl cold ATP at 150 μM and 2 μCi of [γ-^32P] ATP. Add the ATP solution and the tested inhibitor to the kinase and incubate for 30 minutes at 30° C. To stop the enzymatic reaction, 5 μl of loading buffer were added and solution was heated for 3 minutes at 95° C. 25 μl of each reaction were loaded per well in pre-cast NuPage 12% Bis-Tris gel (Life Technology). Autophosphorylated RIPK1 band was visualized on radiographic film after 6 h exposition at −80° C.

[3] = MTS Cell Proliferation assay, read-out: EC50, MTS
[4] = intracellular ATP level, read-out: EC50, ATP level

Row | SMILES | EC50 [1] | inhibition of necroptosis induced by TNF-α [1] | EC50 (Jurkat Fadd−/−; [3]) | EC50 (Jurkat Fadd−/−; [4]) | EC50 (L929sAhFas; [3]) | EC50 (L929sAhFas; [4]) | EC50 (HT29; [3]) | EC50 (HT29; [4]) | anti-necroptotic effect by inducer (in words, summary of Table 1) (HT29) | inhibition of RIPK1 autophosphorylation (in words) [2]
1 | CCOc1ccc(-c2cc3c(Cl)ccnc3n2C(=O)OC(C)(C)C)cc1 [Compound 26, tert-butyl 4-chloro-2-(4-ethoxyphenyl)-1H-pyrrolo[2,3-b]pyridine-1-carboxylate] | 2.4 µM | dose-dependent inhibition |  |  |  |  |  |  |  | 
2 | CCOc1ccc(-c2cc3cccnc3n2C(=O)N2CCN(S(C)(=O)=O)C2=O)cc1 [Compound 33, 1-(2-(4-ethoxyphenyl)-1H-pyrrolo[2,3-b]pyridine-1-carbonyl)-3-(methylsulfonyl) imidazolidin-2-one] | 1 µM | dose-dependent inhibition |  |  |  |  |  |  |  | 
3 | CCOc1ccc(-c2cc3cccn(C(=O)N4CCCC4)c-3n2)cc1 [Compound 35, (2-(4-ethoxyphenyl)-7H-pyrrolo[2,3-b]pyridin-7-yl)(pyrrolidin-1-yl)methanone] | 3.5 µM | dose-dependent inhibition |  |  |  |  |  |  |  | 
4 | CCOc1ccc(-c2cc3cccn(C(=O)N4CCN(C)CC4)c-3n2)cc1 [Compound 36, (2-(4-ethoxyphenyl)-7H-pyrrolo[2,3-b]pyridin-7-yl) (4-methylpiperazin-1-yl)methanone] | 1.05 µM | dose-dependent inhibition |  |  |  |  |  |  |  | 
5 | CN1C(=O)C(Cc2c[nH]c3ccccc23)NC1=S (stereo not drawn) [Nec-1, necrostatin-1, reference compound] |  |  | 1.3 µM | 1.3 µM | 10 µM | 10 µM | 1.2 µM | 2 µM |  | 
6 | CCOc1ccc(-c2cc3cccnc3n2C(=O)OC(C)(C)C)cc1 [Compound 17, tert-butyl 2-(4-ethoxyphenyl)-1H-pyrrolo[2,3-b]pyridine-1-carboxylate] | 3 µM | dose-dependent inhibition |  |  |  |  |  |  |  | 
7 | CCOc1ccc(-c2cc3cccn(C(=O)N(CC)CC)c-3n2)cc1 [Compound 7, 2-(4-ethoxyphenyl)-N,N-diethyl-7H-pyrrolo[2,3-b]pyridine-7-carboxamide] | 7 µM | dose-dependent inhibition | 10 µM | 9.3 µM | 10 µM | 5 µM |  |  | only inhibits TNF- or FasL-induced necroptosis | 
8 | CCOc1ccc(-c2cc3cccn(C(=O)OCc4ccccc4)c-3n2)cc1 [Compound 21, benzyl 2-(4-ethoxyphenyl)-7H-pyrrolo[2,3-b]pyridine-7-carboxylate] | 5 µM | dose-dependent inhibition |  |  |  |  |  |  |  | 
9 | CCOc1ccc(-c2cc3cccn(C(=O)N(C(C)C)C(C)C)c-3n2)cc1 [Compound 34, 2-(4-ethoxyphenyl)-N,N-diisopropyl-7H-pyrrolo[2,3-b]pyridine-7-carboxamide] | 2 µM | dose-dependent inhibition |  |  |  |  |  |  |  | 
10 | CCOc1ccc(-c2cc3cccnc3n2C(=O)OCC(Cl)(Cl)Cl)cc1 [Compound 32, 2,2,2-trichloroethyl 2-(4-ethoxyphenyl)-1H-pyrrolo[2,3-b]pyridine-1-carboxylate] | 2.5 µM | dose-dependent inhibition |  |  |  |  |  |  |  | 
11 | CCOc1ccc(-c2cc3cccnc3n2C(C)=O)cc1 [Compound 10, 1-(2-(4-ethoxyphenyl)-1H-pyrrolo[2,3-b]pyridin-1-yl)ethan-1-one] | 1.7 µM | dose-dependent inhibition | 4 µM | 2.6 µM | 3.5 µM | 5 µM | 4 µM | 5 µM | inhibits TNF-, TRAIL- or FasL-induced necroptosis | dose-dependent inhibition; also recorded: inhibits, in a dose-dependent fashion
